One series concerns the target T1, LmxCLK1 (Leishmania mexicana, UniProt E9AMP2).
T1 sequence (E9AMP2 1-422): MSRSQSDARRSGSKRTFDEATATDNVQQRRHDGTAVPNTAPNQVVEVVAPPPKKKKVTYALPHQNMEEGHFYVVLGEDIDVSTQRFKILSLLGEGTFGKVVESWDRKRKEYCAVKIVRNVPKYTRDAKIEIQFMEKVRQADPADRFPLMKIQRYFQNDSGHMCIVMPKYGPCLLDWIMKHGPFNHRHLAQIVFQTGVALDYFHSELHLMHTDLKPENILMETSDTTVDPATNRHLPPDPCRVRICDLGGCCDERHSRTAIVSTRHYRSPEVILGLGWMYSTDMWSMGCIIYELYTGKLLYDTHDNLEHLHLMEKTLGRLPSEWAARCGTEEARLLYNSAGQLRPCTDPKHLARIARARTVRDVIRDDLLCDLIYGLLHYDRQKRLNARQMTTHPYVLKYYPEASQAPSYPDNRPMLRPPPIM
In words: Intact mass LC-MS for covalent adduct formation. The format is binding. The conditions noted are these: 2 h incubation at room temperature, inhibitor:protein 3:1. The method, then: Samples were analyzed by LC-ESI-MS in a XEVO G2 Sx Q-ToF (Waters) at LACTAD-UNICAMP, Brazil. […]
where background is the background fluorescence obtained in the absence of enzyme (blank).
To determine IC50 values, the background-corrected HTRF ratio was plotted as a function of test compound concentration, and the data were fitted to the sigmoidal dose-response (variable slope) equation [2] available in GraphPad Prism (v. 9.1.0):
Signal ratio (665/620) = Plateau + Plateau)(* − Plateau’())($ [2] […]
where Hill = Hill slope describing the steepness of the curve and x = test compound concentration.
To obtain normalized enzymatic activity we used the background corrected HTRF ratio of enzymatic […]
and 0% enzyme activity, respectively.
To establish the contribution of compound pre-incubation to the IC50 assay, we pre-incubated WZ8040 with LmxCLK1 for 5, 10, 15 and 30 minutes at room temperature, prior to starting the phosphorylation reaction by adding ATP and the peptide substrate. The enzymatic reactions were carried following the procedures described above.
For fitting of kinact and KI values from endpoint pre-incubation IC50 data, we used the equation [3], first described by Krippendorff and colleagues:7 […]
IC"&(t) = k. […]
(CQMED clone ID LmxCLK1-cb001) and the two covalent inhibitors WZ8040 and WZ3146. […] Samples were analyzed by LC-ESI-MS in a XEVO G2 Sx Q-ToF (Waters) at LACTAD-UNICAMP, Brazil. […]

The test system of series [1] is L. mexicana intracellular amastigotes. Kind of series: Intracellular amastigote viability in THP-1 macrophages (DAPI counting). The format is cell-based. The conditions noted are these: Leishmania mexicana, macrophage-internalized amastigotes, 48 h.
Procedure: L. mexicana (strain MNYC/BZ/62/M379) promastigotes were cultivated in medium 199 (M199) (Earle’s Salts - Gibco) supplemented with 10% (v/v) heat-inactivated fetal calf serum (HIFCS – Cultilab) and 1% Penicillin/Streptomycin solution (Sigma-Aldrich) at 26 °C. […] THP-1 monocytes were differentiated in adherent macrophages with 50 ng of PMA for 72 h at 37 °C and 5% CO2 before infection with stationary phase promastigotes (ratio 10 promastigotes:1 macrophage) for 6 h, followed by washing to remove non-internalized Leishmania. Infected macrophages were incubated at 34 °C and 5% CO2 for 48 h in RPMI (Gibco) supplemented with 10% HIFCS and 1% Penicillin/Streptomycin solution.
For evaluation of drug effect on promastigote and uninfected macrophage viability, cells were cultivated in the presence of test compounds for 24 h and incubated with 10% AlamarBlue™ Cell Viability Reagent (ThermoFisher) for 24 h before measuring fluorescence at λex 540 nm/λem 590 nm. Untreated cells (1% DMSO) were set as 100 % viable cells. Intracellular amastigotes were treated with compounds for 48 h. Slides with paraformaldehyde-fixed and DAPI-stained cells were imaged on a Zeiss AxioImager microscope – at least 200 macrophages per drug concentration and DMSO control. Experiments were performed in duplicate. The total number of amastigotes was normalized by the number of macrophages counted.
The test system of series [2] is LmxCLK1-overexpressing L. mexicana. In words: microbe, parasite or virus in culture. Format: cell-based, Leishmania mexicana.
In series [3] the test system is L. mexicana T7/Cas9 Δclk1, Δclk2 and Cys172Ala LmxCLK1 lines. Kind of series: Viability of T7/Cas9 null mutant and cysteine point-mutant lines. The format is cell-based, Leishmania mexicana. The conditions noted are these: 96 h, versus parental T7/Cas9 line.
Source text: Data represent mean ± SD of four independent experiments performed in triplicate. […] Data represent mean ± SD of two independent experiments performed in duplicate. […] Data represent mean ± SD of two independent experiments performed in triplicate. […] Values are mean ± SEM.
L. mexicana (strain MNYC/BZ/62/M379) promastigotes were cultivated in medium 199 (M199) (Earle’s Salts - Gibco) supplemented with 10% (v/v) heat-inactivated fetal calf serum (HIFCS – Cultilab) and 1% Penicillin/Streptomycin solution (Sigma-Aldrich) at 26 °C. Phenotypic drug response assays in null mutant and point-mutation mutant lines were performed in HOMEM supplemented with 10% (v/v) heat-inactivated fetal calf serum (HIFCS – Gibco).
In series [4] the test system is THP-1-derived macrophages. The conditions noted are these: human, 24 h, 100 µM.
Procedure: For evaluation of drug effect on promastigote and uninfected macrophage viability, cells were cultivated in the presence of test compounds for 24 h and incubated with 10% AlamarBlue™ Cell Viability Reagent (ThermoFisher) for 24 h before measuring fluorescence at λex 540 nm/λem 590 nm. Untreated cells (1% DMSO) were set as 100 % viable cells. […] Experiments were performed in duplicate.
For series [5], the system named is T790M mutant form of EGFR. The conditions noted are these: cited from earlier work.

The values below come from publication PMC7619385 (ACS infectious diseases, 2025).

Each structure is given as a SMILES string.

In the case of `C=CC(=O)Nc1cccc(Oc2nc(Nc3ccc(N4CCN(C)CC4)cc3)ncc2Cl)c1` [WZ3146], the “Covalent adduct formation with purified LmxCLK1” value at LmxCLK1 is on record as “formation of covalent adducts”.
Take `C=CC(=O)Nc1cccc(Sc2nc(Nc3ccc(N4CCN(C)CC4)cc3)ncc2Cl)c1` [WZ8040]: the EC50 (in general, the midpoint of the concentration-response curve) came out at 2.1 µM in series [1] and 17.6 µM in series [2] (Leishmania mexicana, read-out: EC50 LmxCLK1-overexpressing parasites). Further, in series [2] (compared to wild-type parasites), the “Reduction of parasite sensitivity by LmxCLK1 overexpression” value is listed as “approximately 3 fold”. Also, the “Sensitivity of Δclk1 line” value in series [3] was “significantly enhanced sensitivity”. The “Covalent adduct formation with purified LmxCLK1” value at LmxCLK1 is “formation of covalent adducts”. Also, the “Reduction in macrophage viability” value in series [4] was ~ 15%. In series [5], the “Selectivity for T790M mutant EGFR compared to wild-type enzyme” value is reported as “over 10 fold”.
